Read-outs that look alike come from different tables or passages of the source.
Test system: PANC-1 cells
Assay: cell viability assay in PANC-1 cells (compound alone, + 100 ng/ml TNFa, + 300 ng/ml TRAIL)
Format: cell-based
[1] = Homo sapiens, PANC-1, compound alone, Tables 6-10, read-out: IC50 (μM) in cell viability assay in PANC-1 cells: Compound alone
[2] = with 100 ng/ml TNFa, Tables 6-10, read-out: IC50 (μM) in cell viability assay in PANC-1 cells: Compound + 100 ng/ml TNFa
[3] = with 300 ng/ml TRAIL, Tables 6-10, read-out: IC50 (μM) in cell viability assay in PANC-1 cells: Compound + 300 ng/ml TRAIL
[4] = Homo sapiens, PANC-1, compound alone, Tables 15-18, read-out: IC50 (uM) in cell viability assay in PANC-1 cells: Cmpnd alone
[5] = with 100 ng/ml TNFa, Tables 15-18, read-out: IC50 (uM) in cell viability assay in PANC-1 cells: Cmpnd + 100 ng/ml TNFa
[6] = with 300 ng/ml TRAIL, Tables 15-18, read-out: IC50 (uM) in cell viability assay in PANC-1 cells: Cmpnd + 300 ng/ml TRAIL
[7] = compound alone, Tables 6-10, read-out: IC50 (μM) in cell viability assay in PANC-1 cells: Compound alone
[8] = Homo sapiens, PANC-1 cells, compound alone, read-out: IC50 (uM) in cell viability assay in PANC-1 cells, Cmpnd alone
[9] = PANC-1 cells, + 100 ng/ml TNFa, read-out: IC50 (uM) in cell viability assay in PANC-1 cells, Cmpnd + 100 ng/ml TNFa
[10] = PANC-1 cells, + 300 ng/ml TRAIL, read-out: IC50 (uM) in cell viability assay in PANC-1 cells, Cmpnd + 300 ng/ml TRAIL

Structure (SMILES)	IC50 [1]	IC50 [2]	IC50 [3]	further results
CN[C@@H](C)C(=O)N[C@@H](CCC(=O)Nc1ccc2c(c1)Cc1cc(NC(=O)CC[C@H](NC(=O)[C@H](C)NC)C(=O)N3CCC[C@H]3C(=O)N[C@@H]3CCCc4ccccc43)ccc1-2)C(=O)N1CCC[C@H]1C(=O)N[C@@H]1CCCc2ccccc21 [Compound 117]	> 1 µM	0.02 µM	0.025 µM	–
CN[C@@H](C)C(=O)N[C@H](C(=O)N1CCC[C@H]1CN(CC#CC#CCN(CCc1ccccc1)C[C@@H]1CCCN1C(=O)[C@@H](NC(=O)[C@H](C)NC)C(C)(C)C)CCc1ccccc1)C(C)(C)C [Compound P4-20]	–	–	–	IC50 [4]: > 1 µM; IC50 [5]: 0.061 µM; IC50 [6]: 0.041 µM
CN[C@@H](C)C(=O)N[C@H](C(=O)N1C[C@@H](NC(=O)c2cccc(C(=O)N[C@H]3C[C@@H](C(=O)N[C@H](C)c4ccccn4)N(C(=O)[C@@H](NC(=O)[C@H](C)NC)C(C)(C)C)C3)c2)C[C@H]1C(=O)N[C@H](C)c1ccccn1)C(C)(C)C [Compound 26]	–	> 1 µM	> 1 µM	IC50 [7]: > 1 µM
CN[C@@H](C)C(=O)N[C@H](C(=O)N1CCC[C@H]1CN(CCc1ccccc1)C(=O)CCC#CC#CCCC(=O)N(CCc1ccccc1)C[C@@H]1CCCN1C(=O)[C@@H](NC(=O)[C@H](C)NC)C(C)(C)C)C(C)(C)C [Compound P4-21]	–	–	–	IC50 [4]: > 1 µM; IC50 [5]: 0.151 µM; IC50 [6]: 0.175 µM
CN[C@@H](C)C(=O)N[C@H](C(=O)N1CCC[C@H]1C(=O)N[C@H](C)c1ccccc1)[C@H](C)NC(=O)CCCCC(=O)N[C@@H](C)[C@H](NC(=O)[C@H](C)NC)C(=O)N1CCC[C@H]1C(=O)N[C@H](C)c1ccccc1 [Compound 113]	> 1 µM	0.208 µM	0.203 µM	–
CN[C@@H](C)C(=O)N[C@H]1CCN(C(=O)c2ccc(C(=O)N[C@H]3C[C@@H](C(=O)N[C@@H]4CCCc5ccccc54)N(C(=O)[C@@H](NC(=O)[C@H](C)NC)C(C)(C)C)C3)cc2)C1 [Compound 187]	> 1 µM	0.62 µM	0.6 µM	–
CN[C@@H](C)C(=O)N[C@H](C(=O)N1C[C@@H](NC(=O)c2ccc(C(=O)N[C@H]3C[C@@H](C(=O)N[C@@H]4CCCc5ccccc54)N(C(=O)[C@@H](NC(=O)[C@H](C)NC)C(C)(C)C)C3)nc2)C[C@H]1C(=O)N[C@@H]1CCCc2ccccc21)C(C)(C)C [Compound P3-94]	–	–	–	IC50 [8]: > 1 µM; IC50 [9]: 0.003 µM; IC50 [10]: 0.006 µM
CN[C@@H](C)C(=O)NC(CCC(=O)Nc1ccc(CCc2ccc(NC(=O)CCC(NC(=O)[C@H](C)NC)C(=O)N3CCC[C@H]3C(=O)N[C@@H]3CCCc4ccccc43)cc2)cc1)C(=O)N1CCC[C@H]1C(=O)NC1CCCc2ccccc21 (stereo partly drawn) [Compound P2-45]	–	–	–	IC50 [4]: > 1 µM; IC50 [5]: 0.002 µM; IC50 [6]: 0.004 µM
CN[C@@H](C)C(=O)N[C@H](C(=O)N[C@@H](CCNC(=O)c1ccc(CCc2ccc(C(=O)N[C@@H]3C[C@@H](C(=O)N[C@@H]4CCCc5ccccc54)N(C(=O)[C@@H](NC(=O)[C@H](C)NC)C(C)(C)C)C3)cc2)cc1)C(=O)NC(C)C(C)C)C(C)C (stereo partly drawn) [Compound 201]	> 1 µM	0.027 µM	0.057 µM	–
CN[C@@H](C)C(=O)N[C@H](C(=O)N1CCC[C@H]1C(=O)N[C@H]1c2ccccc2C[C@@H]1OCC#CC#CCO[C@H]1Cc2ccccc2[C@@H]1NC(=O)[C@@H]1CCCN1C(=O)[C@@H](NC(=O)[C@H](C)NC)C(C)(C)C)C(C)(C)C [Compound 121]	> 1 µM	0.0013 µM	0.0015 µM	–
CN[C@@H](C)C(=O)N[C@@H](CCCCCC[C@H](NC(=O)[C@H](C)NC)C(=O)N1CCCC[C@H]1C(=O)N[C@@H]1CCCc2ccccc21)C(=O)N1CCCC[C@H]1C(=O)N[C@@H]1CCCc2ccccc21 [Compound 94]	> 1 µM	0.014 µM	0.049 µM	–
CN[C@@H](C)C(=O)N[C@@H](CCCCCC[C@H](NC(=O)[C@H](C)NC)C(=O)N[C@H]1c2ccccc2C[C@@H]1NC(=O)c1c(OC)cccc1OC)C(=O)N[C@H]1c2ccccc2C[C@@H]1NC(=O)c1c(OC)cccc1OC [Compound 59]	> 1 µM	> 1 µM	> 1 µM	–
CN[C@@H](C)C(=O)N[C@H](C(=O)N1C[C@@H](NC(=O)c2cccc(C(=O)N[C@H]3C[C@@H](C(=O)NC4CCCc5c(OC)cccc54)N(C(=O)[C@@H](NC(=O)[C@H](C)NC)C(C)(C)C)C3)c2)C[C@H]1C(=O)NC1CCCc2c(OC)cccc21)C(C)(C)C (single isomer, unassigned) [Compound 46]	> 1 µM	0.048 µM	0.014 µM	–
CN[C@@H](C)C(=O)N[C@H](C(=O)N1C[C@@H](N(C)C(=O)c2cc(C(=O)N(C)[C@H]3C[C@@H](C(=O)N[C@H](C)c4ccccc4)N(C(=O)[C@@H](NC(=O)[C@H](C)NC)C(C)(C)C)C3)[nH]n2)C[C@H]1C(=O)N[C@H](C)c1ccccc1)C(C)(C)C [Compound P3-109]	–	–	–	IC50 [8]: > 1 µM; IC50 [9]: 0.028 µM; IC50 [10]: 0.049 µM
CN[C@@H](C)C(=O)N[C@@H](CC(=O)NCC=CC=CCNC(=O)C[C@H](NC(=O)[C@H](C)NC)C(=O)N1CCC[C@H]1C(=O)N[C@@H]1CCCc2ccccc21)C(=O)N1CCC[C@H]1C(=O)N[C@@H]1CCCc2ccccc21 [Compound P2-42]	–	–	–	IC50 [4]: > 1 µM; IC50 [5]: 0.091 µM; IC50 [6]: 0.148 µM
CN[C@@H](C)C(=O)N[C@@H](CCCCNC(=O)c1cccc(C(=O)N[C@H]2C[C@@H](C(=O)N[C@@H]3CCCc4ccccc43)N(C(=O)[C@@H](NC(=O)[C@H](C)NC)C(C)(C)C)C2)c1)C(=O)N1CCC[C@H]1C(=O)NC(c1ccccc1)c1ccccc1 [Compound 184]	> 1 µM	0.027 µM	0.076 µM	–
CCC1(NC(=O)[C@@H]2C[C@H](NC(=O)c3cccc(C(=O)N[C@H]4C[C@@H](C(=O)NC5(CC)CCCc6ccccc65)N(C(=O)[C@@H](NC(=O)[C@H](C)NC)C(C)(C)C)C4)c3)CN2C(=O)[C@@H](NC(=O)[C@H](C)NC)C(C)(C)C)CCCc2ccccc21 (stereo partly drawn) [Compound 51]	–	0.104 µM	0.081 µM	IC50 [7]: > 1 µM
CN[C@@H](C)C(=O)N[C@H](C(=O)N1C[C@@H](NC(=O)c2ccc(C#Cc3ccc(C(=O)N[C@H]4C[C@@H](C(=O)N[C@@H]5CCCc6ccccc65)N(C(=O)[C@@H](NC(=O)[C@H](C)NC)C(C)(C)C)C4)cc3)cc2)C[C@H]1C(=O)N[C@@H]1CCCc2ccccc21)C(C)(C)C [Compound P3-100]	–	–	–	IC50 [8]: > 1 µM; IC50 [9]: 0.054 µM; IC50 [10]: 0.055 µM
CN[C@@H](C)C(=O)N[C@H](C(=O)N[C@@H](CCNC(=O)c1ccc2cc(C(=O)N[C@H]3C[C@@H](C(=O)N[C@@H]4CCCc5ccccc54)N(C(=O)[C@@H](NC(=O)[C@H](C)NC)C(C)(C)C)C3)ccc2c1)C(=O)N[C@H](C)C(C)C)C(C)C [Compound 185]	> 1 µM	0.008 µM	0.004 µM	–
CN[C@@H](C)C(=O)N[C@@H](Cc1ccc(NC(=O)Nc2ccc(C[C@H](NC(=O)[C@H](C)NC)C(=O)N3CCC[C@H]3C(=O)N[C@@H]3CCCc4ccccc43)cc2)cc1)C(=O)N1CCC[C@H]1C(=O)N[C@@H]1CCCc2ccccc21 [Compound P2-38]	–	–	–	IC50 [4]: > 1 µM; IC50 [5]: 0.021 µM; IC50 [6]: 0.037 µM
CN[C@@H](C)C(=O)N[C@H](C(=O)N[C@@H](CCNC(=O)c1cc(C(=O)N[C@H]2C[C@@H](C(=O)N[C@@H]3CCCc4ccccc43)N(C(=O)[C@@H](NC(=O)[C@H](C)NC)C(C)(C)C)C2)cc([N+](=O)[O-])c1)C(=O)N[C@H](C)C(C)C)C(C)C [Compound 179]	> 1 µM	0.056 µM	0.048 µM	–
